Source: ChEMBL document CHEMBL1201862, “PubChem BioAssay data set” (2004)
The source made the active and inactive calls.

Assays:
[1] = molecular target: T1, Mannose-6-phosphate isomerase (Homo sapiens, UniProt P34949); assay: inhibitors of human PMI, primary screen, biochemical, fluorescence intensity, coupled assay (AID 1209)
T1 sequence (P34949 whole entry): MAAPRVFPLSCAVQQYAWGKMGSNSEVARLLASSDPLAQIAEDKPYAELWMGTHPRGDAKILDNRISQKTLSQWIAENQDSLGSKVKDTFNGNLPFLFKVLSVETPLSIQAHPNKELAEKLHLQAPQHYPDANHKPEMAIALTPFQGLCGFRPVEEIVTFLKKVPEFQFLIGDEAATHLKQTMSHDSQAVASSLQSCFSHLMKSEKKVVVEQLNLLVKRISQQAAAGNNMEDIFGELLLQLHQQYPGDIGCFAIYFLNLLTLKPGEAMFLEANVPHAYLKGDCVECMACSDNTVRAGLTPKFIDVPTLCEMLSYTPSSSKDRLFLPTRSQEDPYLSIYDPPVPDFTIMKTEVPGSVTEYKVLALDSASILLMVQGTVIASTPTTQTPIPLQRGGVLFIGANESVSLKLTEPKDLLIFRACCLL

[2] = molecular target: T1, Mannose-6-phosphate isomerase; assay: PMI enzyme inhibitors, confirmation, biochemical, fluorescence intensity (AID 1535)
[3] = inhibitors of intracellular T. cruzi replication, confirmation, NIH3T3 host cells, beta-gal luminescence (AID 2044); type: functional, cell-based;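 note: intracellular parasites grown in NIH/3T3 mouse fibroblasts as host cells; luminescent beta-galactosidase reporter signal from transgenic T. cruzi replicating inside host cells; inhibitors lower the luminescence signal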
Phosphomannomutase 2 = Phosphomannomutase 2 (Homo sapiens, UniProt O15305); assay: Counter screen SAR assay for PMM2 inhibitors via a fluorescence intensity assay. [Related pubchem assays (depositor defined):AID1545, AID1574]
Sequence of Phosphomannomutase 2 (O15305 whole entry): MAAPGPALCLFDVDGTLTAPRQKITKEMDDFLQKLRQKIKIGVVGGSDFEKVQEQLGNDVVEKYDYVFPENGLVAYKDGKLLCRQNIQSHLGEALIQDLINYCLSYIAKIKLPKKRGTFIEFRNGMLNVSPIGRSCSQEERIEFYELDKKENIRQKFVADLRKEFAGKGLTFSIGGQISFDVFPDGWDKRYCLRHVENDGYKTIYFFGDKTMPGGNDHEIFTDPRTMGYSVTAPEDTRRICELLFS

[4] = molecular target: DNA dC->dU-editing enzyme APOBEC-3G (Homo sapiens, UniProt Q9HC16); assay: Dose Response confirmation of small molecule APOBEC3G DNA Deaminase Inhibitors via a fluorescence-based single-stranded DNA deaminase assay. [Related pubchem assays (depositor defined):AID493012, AID493028]; type: functional
Sequence of DNA dC->dU-editing enzyme APOBEC-3G (Q9HC16 whole entry): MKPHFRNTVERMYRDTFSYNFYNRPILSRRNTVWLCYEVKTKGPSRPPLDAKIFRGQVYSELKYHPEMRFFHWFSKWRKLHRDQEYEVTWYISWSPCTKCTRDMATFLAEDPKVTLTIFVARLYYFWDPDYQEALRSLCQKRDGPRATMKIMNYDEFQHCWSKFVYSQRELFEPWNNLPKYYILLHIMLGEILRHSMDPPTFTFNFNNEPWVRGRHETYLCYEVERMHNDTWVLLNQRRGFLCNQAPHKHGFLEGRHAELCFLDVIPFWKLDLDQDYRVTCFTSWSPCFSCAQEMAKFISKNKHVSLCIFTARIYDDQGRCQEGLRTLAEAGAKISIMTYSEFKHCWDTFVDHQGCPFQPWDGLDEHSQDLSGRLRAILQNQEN

[5] = molecular target: Eukaryotic translation initiation factor 4E (Mus musculus, UniProt P63073); assay: eIF4E–eIF4G protein interaction inhibitors, dose response, biochemical, TR-FRET (AID 855); type: functional;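 note: potency for disrupting eIF4E binding to eIF4GI seen as loss of FRET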
Sequence of Eukaryotic translation initiation factor 4E (P63073 whole entry): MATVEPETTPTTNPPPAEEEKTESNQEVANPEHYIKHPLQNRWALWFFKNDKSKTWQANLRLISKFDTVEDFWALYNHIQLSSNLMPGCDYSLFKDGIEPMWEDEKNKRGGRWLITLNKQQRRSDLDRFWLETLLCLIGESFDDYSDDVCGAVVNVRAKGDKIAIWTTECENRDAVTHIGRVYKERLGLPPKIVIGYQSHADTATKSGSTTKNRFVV

[6] = cytotoxicity toward NIH3T3 fibroblasts, dose response, counter-screen, cell-based, ATP luminescence, mouse fibroblasts (AID 2010); type: functional;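 note: cells exposed to compound for about 90 hours before reading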
HeLa = assay: HeLa cell cytotoxicity, dose response, cytotoxicity control, 24 h, cherry-picked samples (AID 504726); type: functional, cell-based; settings: Homo sapiens;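 note: potency for cytotoxicity as loss of luminescence signal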
[7] = viability loss in BJeLR (HRASV12) cells, primary screen, Ras selective lethality project, cell-based, Alamar Blue, dry powder (AID 493045); type: functional
[8] = viability loss in HRASV12 DRD fibroblasts, dose response, cell-based, DRD BJ fibroblasts, dry powder (AID 493049); type: functional
[9] = cytotoxicity in BJeHLT fibroblasts, dose response, counter-screen for Ras selective lethality project, BJeHLT cells, dry powder (AID 493052); type: functional, cell-based; settings: Homo sapiens
[10] = cytotoxicity in BJeH fibroblasts, dose response, counter-screen for Ras selective lethality project, BJeH cells, dry powder (AID 493054); type: functional, cell-based
[11] = molecular target: Melanin-concentrating hormone receptor 1 (Homo sapiens, UniProt Q99705); assay: Late-stage fluorescence-based counterscreen for antagonists of the G-protein coupled receptor 7 (GPR7): cell-based dose response assay to identify antagonists of the melanin-concentrating hormone receptor 1 (MCHR1). [Related pubchem assays (depositor defined):AID1861, AID1880, AID1952, AID2148, AID2251, AID2257, AID485339]; type: functional;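 note: stimulated with 30 nM MCH peptide agonist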
Sequence of Melanin-concentrating hormone receptor 1 (Q99705 whole entry): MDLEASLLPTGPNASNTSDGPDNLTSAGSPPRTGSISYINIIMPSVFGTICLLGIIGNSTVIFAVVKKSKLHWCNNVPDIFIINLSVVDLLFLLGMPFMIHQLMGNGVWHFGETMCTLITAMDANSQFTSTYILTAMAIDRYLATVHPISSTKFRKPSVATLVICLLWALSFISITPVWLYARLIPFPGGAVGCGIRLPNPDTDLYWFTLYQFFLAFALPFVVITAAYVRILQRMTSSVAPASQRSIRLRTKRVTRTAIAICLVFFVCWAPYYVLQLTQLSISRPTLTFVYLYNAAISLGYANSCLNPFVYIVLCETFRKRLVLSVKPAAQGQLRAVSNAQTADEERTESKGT

[12] = cytotoxicity toward Colo320 cells – cell-based, CellTiter-Glo luminescence, IC50, dose response (AID 1117334); type: functional; settings: COLO 320
[13] = HIV-1 Env-mediated cell fusion inhibitors, dose response, CCR5-tropic Env (AID 2279); type: functional
[14] = CellTiter-Glo luminescent dose response of DLD-1 viability loss (AID 1117352); type: functional
[15] = cytotoxicity toward HT-29 cells – cell-based, CellTiter-Glo luminescence, IC50, dose response (AID 1117330); type: functional
Streptococcus = assay: Group A Streptococcus viability loss, dose response, counter-screen for streptokinase expression inhibitor project, luminescence, BacTiterGlo (AID 1915); type: functional, organism-based;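 note: potency for reduction of bacterial viability or growth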
[16] = RKO cell viability reduction, dose response, CellTiter-Glo luminescence (AID 1117322); type: functional
[17] = molecular target: Envelope glycoprotein gp160 (Human immunodeficiency virus 1, UniProt Q6QLK5); assay: inhibitors of HIV fusion peptide binding, primary screen, biochemical, uHTS, fluorescence dequenching (AID 1986)
Sequence of Envelope glycoprotein gp160 (Q6QLK5 whole entry, the tested form may be a part): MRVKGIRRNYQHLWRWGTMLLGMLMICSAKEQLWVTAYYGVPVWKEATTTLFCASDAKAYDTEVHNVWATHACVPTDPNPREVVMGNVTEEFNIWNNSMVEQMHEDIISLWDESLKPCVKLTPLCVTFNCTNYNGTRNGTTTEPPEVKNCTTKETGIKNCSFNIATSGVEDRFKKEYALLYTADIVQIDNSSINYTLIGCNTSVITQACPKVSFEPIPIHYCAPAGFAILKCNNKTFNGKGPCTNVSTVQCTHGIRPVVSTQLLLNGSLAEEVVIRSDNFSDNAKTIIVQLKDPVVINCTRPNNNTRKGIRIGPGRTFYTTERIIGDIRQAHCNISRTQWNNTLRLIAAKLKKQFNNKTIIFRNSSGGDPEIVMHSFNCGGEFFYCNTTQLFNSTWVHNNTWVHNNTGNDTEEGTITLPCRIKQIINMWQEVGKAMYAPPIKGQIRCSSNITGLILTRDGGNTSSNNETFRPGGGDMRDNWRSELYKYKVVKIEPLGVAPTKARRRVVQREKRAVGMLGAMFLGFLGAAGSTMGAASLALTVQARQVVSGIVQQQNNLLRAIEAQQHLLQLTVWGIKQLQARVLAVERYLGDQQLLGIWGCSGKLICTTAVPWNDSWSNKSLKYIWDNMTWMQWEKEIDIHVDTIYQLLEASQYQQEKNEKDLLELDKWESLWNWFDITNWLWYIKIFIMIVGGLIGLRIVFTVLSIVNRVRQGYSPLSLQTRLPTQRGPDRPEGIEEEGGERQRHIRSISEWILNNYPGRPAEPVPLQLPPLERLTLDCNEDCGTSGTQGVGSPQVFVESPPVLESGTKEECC

[18] = SNU-C1 cell viability reduction, dose response, CellTiter-Glo luminescence (AID 1117323); type: functional, cell-based
[19] = Glucagon-like peptide 1 release potency, NCI-H716 cell line, dose-response, half-maximal inhibitory concentration (AID 1117344); type: functional, cell-based
[20] = system: Streptococcus sp. 'group A'; assay: growth inhibition of control SK(-) GAS strain, dose response, counter-screen for streptokinase expression inhibitor project, luminescence, kanamycin, BacTiterGlo, confirmation (AID 1900); type: functional, organism-based
[21] = half-maximal inhibitory concentration for glucagon-like peptide-1 release, STC-1 cell line, dose-response (AID 1117345); type: functional, cell-based
[22] = Concentration-dependent survival of SW480 colon cancer line, luminescence detection with CellTiter-Glo, half-maximal inhibitory concentration (AID 1117338); type: functional
[23] = cytotoxicity toward HCT116 cells – cell-based, CellTiter-Glo luminescence, IC50, dose response (AID 1117332); type: functional; settings: HCT-116

**Q.** Which results are given for `COc1ccc2nc(N=C(S)N(C)C)sc2c1`?
**A.** IC50 [1]: 8330 nM (active); IC50 [2]: 46100 nM (active); EC50 [3]: 2030 nM (active); IC50 (Phosphomannomutase 2): > 100000 nM (inactive); IC50 [4]: 40800 nM (active); IC50 [5]: > 64000 nM (inactive); EC50 [6]: > 60000 nM (inconclusive)

**Q.** With `CC(=O)N/C(=C/c1ccc(OS(=O)(=O)c2ccc(C)cc2)cc1)C(=O)Nc1ccc(C(=O)O)cc1` as the compound, how does the AC50 (HeLa) read?
**A.** 132000 nM (active)

**Q.** With `COc1ccc(N(C(=O)CCl)C(C(=O)NCS(=O)(=O)c2ccc(C)cc2)c2cccs2)cc1Cl` (stereo unspecified) as the compound, how does the AC50 [7] read?
**A.** 89 nM (active)

**Q.** And the AC50 [8]?
**A.** 83 nM (active)

**Q.** And the AC50 [9]?
**A.** 208 nM (active)

**Q.** What about the AC50 [10] of the same compound?
**A.** 347 nM (active)

**Q.** For `COc1ccc(Oc2c(Cl)cnn(Cc3ccc(C)cc3)c2=O)cc1`, which IC50 [11] is on record?
**A.** 6300 nM (active)

**Q.** What does the source list for `O=C(Nc1ccc(Oc2ccc(Cl)cc2)c(Cl)c1)c1cc(I)cc(I)c1O` [RAFOXANIDE]?
**A.** IC50 [12]: 54 nM (active); IC50 [13]: 7360 nM (active); IC50 [14]: 8.4 nM (active); IC50 [15]: 9.5 nM (active); EC50 (Streptococcus): 137 nM (active); IC50 [16]: 30.3 nM (active); IC50 [17]: 19700 nM (active); IC50 [18]: 14.3 nM (active); IC50 [19]: > 40000 nM (inactive); EC50 [20]: 80 nM (active); IC50 [21]: 1300 nM (active); IC50 [22]: 10.8 nM (active); IC50 [23]: 16.9 nM (active)
